Marks after values point to notes of the source that are not given here.
What was measured:
Type in all cases: cell-based, human
XIAP = assay: Western blot assay on XIAP expression in trophoblastic cells; details: mifepristone induced model, Blank = 1.000
Procedure: (§1) Hyperoside and asperosaponin are individual compounds isolated from herbal medicines cuscuta chinensis and taxillus sutchuenensis, respectively. Progesterone is a compound often used to prevent spontaneous abortion and was used in present invention as positive treatment control for comparison with of the novel composition of the present invention.
(§2) Extraction of total cellular protein and cytoplasmic protein: The cells 4×10^5 cells/ml were seeded in the 6-well plate. After incubating at 37° C., 5% CO2 for 44 hours, the cells are grouped and treated according to the experiment scheme (see above). Extraction conducted at two treatment points: 24-24 h (treat with agent for 24 hours and continue incubation for 24 hours after removing the agent) and 24-48 h (treat with agent for 24 hours and continue incubation for 48 hours after removing the agent). The assays were conducted as follows:
(§3) At each predetermined time point, discard the culture medium, wash the cells three times with cold PBS solution, 3 min each time. After removing PBS, put the cells on ice. Add lysis buffer, 150 μl per well, and then place the cells on ice for 5 min, scrape the surface cells and transfer the cell lysate to an EP tube. Put the tube on ice for 30 min. After centrifuge (4° C., 12000 rpm/min, 15 min), transfer the supernatant to the EP tube and store it at −20° C. Determine the protein concentration with the BCA method and adjust the protein concentration to the same level. Add 3 μl 5× SDS-PAGE sampling buffer, denature at 100° C. for 5 min, and store the samples at −20° C. for Western Blotting. The Western Blotting procedure was conducted in a standard manner known in the art, description of which is omitted herewith for the sake of brevity.

Caspase-3 = assay: Western blot assay on Caspase-3 expression in trophoblastic cells; details: mifepristone induced model, Blank = 1.000
Procedure: as §1, §2, §3

trophoblast cells [1] = assay: MTT assay on cell proliferation in mifepristone induced trophoblast model; details: Blank = 1.0000
Procedure: as §1
The trophoblast cells (adjust to 1.5×10^4/ml) were seeded in wells on a 96-well plate, […]. After incubating for 48 hours at 37° C., 5% CO2, the cells were grouped and treated accordingly (see above). Assays were conducted after treatment for 24 h and 48 h according to the following procedure:
Add 10 μl 1×MTT (3-(4,5-dimethylthiazol-2-yl)-2,5-diphenyltetrazolium bromide) to the well and continue incubation at 37° C., 5% CO2 for 4 hours to reduce MTT to formazan. Remove the supernatant from the well and add to each well 150 μl DMSO (dimethylsulfoxide) to dissolve formazan. After shaking the 96 plate for 10 min to make crystals completely dissolved, determine the OD value at 490 nm with a enzyme immunoassay analyzer. The determination was repeated three times.

BcI-2/Bax = assay: Western blot assay on Bcl-2/Bax expression ratio in trophoblastic cells; details: mifepristone induced model, Blank = 1.000
Procedure: Hyperoside and asperosaponin are individual compounds isolated from herbal medicines cuscuta chinensis and taxillus sutchuenensis, respectively.
as §2, §3

Caspase-3 mRNA = assay: Quantitative PCR assay on Caspase-3 mRNA; details: ΔΔCt, mifepristone induced model, time point not given
Excerpt: as §1
(§4) Design of primers: Based on search for the sequence of the target gene mRNA in GenBank, the following primers were designed: […]
(§5) Total RNA extraction: Cells 4×10^5 cells/ml were seeded in the 6-well plate, 1 ml per well, and incubated at 37° C., 5% CO2 for 48 h. Then, the cells were grouped and treated according to the experiment scheme (see above). Extraction was conducted at two time points: 24 h and 24-24 h (24 hours of agent treatment and 24 hours after removing the agent), according to the procedures described as follows:
(§6) Placed the cells in the 1.5 ml EP tube, add Trizol 1 ml, and mix by shaking. Add chloroform 0.2 ml, cover tightly, and shake vigorously for 15 s. Store it at 4° C. for 2-3 min, centrifugal at 4° C., 12000 rpm×15 min. Transfer the supernatant to a new 1.5 ml EP tube, add an equal volume of isopropanol, incubate at 4° C. for 10 min, and centrifuge 4° C., 12000 rpm×10 min. After discarding the supernatant, add 75% ethanol (containing DEPC water) to wash the precipitate once, centrifugal 4° C. 7500 rpm×5 min, and discard ethanol. Air or vacuum dry for 5-10 min (not completely dry), add DEPC water to dissolve RNA, store at −80° C. for further process.
(§7) Reverse transcription: In a sterile 0.2 ml centrifuge tubes, prepare the reaction according to the following:
(§8) Quantitative PCR:experimental design is in accordance with standard ΔΔCt analytical method. The experimental procedure is as follows:
(§9) (2) Prepare reaction mix (performed on ice):
(§10) (3) PCR reaction: using a standard three-step reaction procedure: […]

Bcl-2 mRNA/Bax mRNA = assay: Quantitative PCR assay, Bcl-2 mRNA/Bax mRNA ratio; details: ΔΔCt, mifepristone induced model, time point not given
Excerpt: as §1, §4, §5, §6, §7, §8, §9, §10

β-HCG = assay: Radioimmunoassay on HCG expression in cell supernatant; details: mifepristone induced model; duration of treatment 48 h
Procedure: as §1
The cells (4×10^5 cells/ml) were seeded in the 6-well plate, 1 ml per well, and incubated at 37° C., 5% CO2 for 48 hours. Then, the cells were grouped and treated accordingly (see above). After 48 hour treatment, cell supernatants were collected and sent to the Department of Nuclear Medicine, Guangzhou University of Traditional Chinese Medicine, for measuring HCG (human chorionic gonadotropin) via a routine radioimmunoassay procedure.

Caspase-9 mRNA = assay: Quantitative PCR assay on Caspase-9 mRNA; details: ΔΔCt, mifepristone induced model, time point not given
Excerpt: as §1, §4, §5, §6, §7, §8, §9, §10

Bcl-2 mRNA = assay: Quantitative PCR assay on Bcl-2 mRNA; details: ΔΔCt, mifepristone induced model, time point not given
Excerpt: as §1, §4, §5, §6, §7, §8, §9, §10

Caspase-9 = assay: Western blot assay on Caspase-9 expression in trophoblastic cells; details: mifepristone induced model, Blank = 1.000
Procedure: as §1, §2, §3

XIAP mRNA = assay: Quantitative PCR assay on XIAP mRNA; details: ΔΔCt, mifepristone induced model, time point not given
Excerpt: as §1, §4, §5, §6, §7, §8, §9, §10

Bax = assay: Western blot assay on Bax expression in trophoblastic cells; details: mifepristone induced model, Blank = 1.000
Procedure: as §1, §2, §3

trophoblast cells [2] = assay: Annexin V/PI flow cytometry assay on early stage apoptosis in Mifepristone-Trophoblast Cell Model; details: comparative study, mifepristone induced model
Procedure: For example, the effect of apoptotic mRNA expressions in trophoblastic cells treated by mifepristone for 24 hours is shown in FIG. 3.
The experimental data on the cell proliferation rate, early apoptosis rate, Caspase-3 protein expression and cell supernatants HCG level expression were then subject to stepwise regression analysis, canonical correlation analysis and result optimization analysis. From these analyses, it is concluded that the preferred ratio among X1:X2:X3:X4:X5 is 0.9:0.00342:0.09037:0.0795:0. […] The number means the percentage of the cells underwent apoptosis.
as §1
The cells 4×10^5 cells/ml were seeded in the 6-well plate, 1 ml per well and incubated at 37° C., 5% CO2 for 48 h. Then, the cells were grouped and treated accordingly (see above). The assays were conducted as follows:
At the end of the predetermined treatment, the cells were digested and spun down(2000 rpm×5 min centrifugation). Discard the medium, wash the cells twice with cold PBS (resuspension and then 2000 rpm×5 min centrifugation). Remove the supernatant and resuspend the cell in 400 μl 1×Annexin V binding solution. Then, add 5 μl AnnexinV-EGFP staining solution to the cell suspension and mix gently. Incubate the cells at 2-8° C. in dark for 15 minutes. Add 10 μl PI (propidium iodide) and mix gently and incubate the cells in dark at 2-8° C. for 5 min. Detection by flow cytometry was conducted within one hour. The detection was repeated three times.

Bax mRNA = assay: Quantitative PCR assay on Bax mRNA; details: ΔΔCt, mifepristone induced model, time point not given
Excerpt: as §1, §4, §5, §6, §7, §8, §9, §10

Row | SMILES | XIAP expression, relative amount of protein compared with Blank (XIAP; 24 h) | XIAP expression, relative amount of protein compared with Blank (XIAP; 48 h) | Caspase-3 expression, relative amount of protein compared with Blank (Caspase-3; 24 h) | Caspase-3 expression, relative amount of protein compared with Blank (Caspase-3; 48 h) | cell proliferation rate as compared to the Blank (MTT) (trophoblast cells [1]; duration of treatment 24 h) | cell proliferation rate as compared to the Blank (MTT) (trophoblast cells [1]; duration of treatment 48 h) | BcI-2/Bax expression ratio, relative ratio of the proteins compared with Blank (BcI-2/Bax; 24 h) | BcI-2/Bax expression ratio, relative ratio of the proteins compared with Blank (BcI-2/Bax; 48 h) | Caspase-3 mRNA level (Caspase-3 mRNA) | Bcl-2 mRNA/BaxmRNA (Bcl-2 mRNA/Bax mRNA) | β-HCG level in cell supernatant (β-HCG) | Caspase-9 mRNA level (Caspase-9 mRNA) | Bcl-2 mRNA level (Bcl-2 mRNA) | Caspase-9 expression, relative amount of protein compared with Blank (Caspase-9; 24 h) | Caspase-9 expression, relative amount of protein compared with Blank (Caspase-9; 48 h) | XIAPmRNA level (XIAP mRNA) | Bax expression, relative amount of protein compared with Blank (Bax; 24 h) | early stage apoptosis, percentage of cells underwent apoptosis (Annexin V FITC/PI) (trophoblast cells [2]; duration of treatment 24 h) | early stage apoptosis, percentage of cells underwent apoptosis (Annexin V FITC/PI) (trophoblast cells [2]; duration of treatment 48 h) [%] | BaxmRNA level (Bax mRNA) | also measured
1 | CC1(C)CC[C@]2(C(=O)O[C@@H]3O[C@H](CO[C@@H]4O[C@H](CO)[C@@H](O)[C@H](O)[C@H]4O)[C@@H](O)[C@H](O)[C@H]3O)CC[C@]3(C)C(=CC[C@@H]4[C@@]5(C)CC[C@H](O[C@@H]6OC[C@H](O)[C@H](O)[C@H]6O)[C@@](C)(CO)[C@@H]5CC[C@]43C)[C@@H]2C1 [Asperosaponin, asperosaponin] | 2.127 ± 0.421 | 1.706 ± 0.492 | 1.372 ± 0.338^Δ | 1.508 ± 0.217*^ΔΔ▴▴□ | 0.787 ± 0.086 | 0.809 ± 0.019 | 1.905 ± 0.297**^ΔΔ∇∇▴▴ | 1.503 ± 0.454 | 2.783 ± 0.541 | 1.88 ± 1.196 | 0.870 ± 0.026 MIU/ML | 1.240 ± 0.945 | 4.908 ± 3.037 | 1.962 ± 0.273^Δ | 1.887 ± 0.742 | 1.253 ± 1.540 | 1.503 ± 0.180^ΔΔ▾▾ | 16.067 ± 2.974 **^ΔΔ % | 15.933 ± 3.742 | 3.181 ± 1.576 | Bax expression, relative amount of protein compared with Blank (Bax; 48 h): 1.804 ± 0.558
2 | O=c1c(O[C@@H]2O[C@H](CO)[C@H](O)[C@H](O)[C@H]2O)c(-c2ccc(O)c(O)c2)oc2cc(O)cc(O)c12 [Hyperoside, hyperoside] | 1.528 ± 0.317 | 1.673 ± 0.768 | 1.847 ± 0.123 | 1.648 ± 0.206**^Δ▴ | 0.788 ± 0.072 | 0.869 ± 0.029 | 1.544 ± 0.726^ΔΔ∇∇ | 0.518 ± 0.186 | 4.640 ± 1.865^Δ | 1.470 ± 1.321 | 1.377 ± 0.142 MIU/ML | 3.512 ± 3.828 | 2.726 ± 1.419 | 2.079 ± 0.267^Δ | 2.221 ± 0.651 | 1.315 ± 0.706 | 1.687 ± 0.519*^ΔΔ▴▴▾▾ | 16.367 ± 1.942 **^ΔΔ % | 15.633 ± 2.136 | 2.469 ± 1.058^Δ | Bax expression, relative amount of protein compared with Blank (Bax; 48 h): 2.544 ± 0.383
3 | CC(=O)[C@H]1CC[C@H]2[C@@H]3CCC4=CC(=O)CC[C@]4(C)[C@H]3CC[C@]12C [Positive Control, progesterone] |  |  |  |  | 0.805 ± 0.030 | 0.825 ± 0.061 | 0.537 ± 0.051 |  | 3.089 ± 1.778^ΔΔ | 7.351 ± 6.001 | 1.067 ± 0.038*^Δ MIU/ML | 1.286 ± 0.780 | 2.971 ± 2.839 |  |  | 1.037 ± 0.425 |  | 17.400 ± 1.229 **^ΔΔ % | 16.367 ± 1.447 | 0.442 ± 0.442^ΔΔ | 
